According to the NIST ThermoML archive (doi:10.1016/j.jct.2016.03.026):
± gives the expanded uncertainty stated by the source.

Experiment: xn = mol fraction of the nth substance listed
Details: 273.15 K, Fluid (supercritical or subcritical phases), x1 = 0.97; for mass density: Vibrating tube method

O=C=O [carbon dioxide] + CO
Details	mass density [kg/m3]
8000 kPa	962.72 ± 0.8
8025 kPa	962.8 ± 0.8
8050 kPa	962.97 ± 0.8
8075 kPa	963.13 ± 0.8
8100 kPa	963.21 ± 0.8
8125 kPa	963.38 ± 0.8
8150 kPa	963.54 ± 0.8
8175 kPa	963.7 ± 0.8
8200 kPa	963.78 ± 0.8
8225 kPa	963.95 ± 0.8
8250 kPa	964.11 ± 0.8
8275 kPa	964.23 ± 0.8
8300 kPa	964.35 ± 0.8
8325 kPa	964.52 ± 0.8
8350 kPa	964.68 ± 0.8
8375 kPa	964.76 ± 0.8
8400 kPa	964.93 ± 0.8
8425 kPa	965.04 ± 0.8
8450 kPa	965.19 ± 0.8
8475 kPa	965.34 ± 0.8
8500 kPa	965.5 ± 0.8
8525 kPa	965.6 ± 0.8
8550 kPa	965.74 ± 0.8
8575 kPa	965.91 ± 0.8
8600 kPa	966 ± 0.8
8625 kPa	966.15 ± 0.8
8650 kPa	966.32 ± 0.8
8675 kPa	966.46 ± 0.8
8700 kPa	966.56 ± 0.8
8725 kPa	966.72 ± 0.8
8750 kPa	966.89 ± 0.8
8775 kPa	966.97 ± 0.8
8800 kPa	967.13 ± 0.8
8825 kPa	967.3 ± 0.8
8850 kPa	967.38 ± 0.8
8875 kPa	967.54 ± 0.8
8900 kPa	967.71 ± 0.8
8925 kPa	967.86 ± 0.8
8950 kPa	967.95 ± 0.8
8975 kPa	968.12 ± 0.8
9000 kPa	968.28 ± 0.8
9025 kPa	968.36 ± 0.8
9050 kPa	968.52 ± 0.8
9075 kPa	968.69 ± 0.8
9100 kPa	968.77 ± 0.8
9125 kPa	968.93 ± 0.8
9150 kPa	969.1 ± 0.8
9175 kPa	969.18 ± 0.8
9200 kPa	969.34 ± 0.8
9225 kPa	969.51 ± 0.8
9250 kPa	969.64 ± 0.8
9275 kPa	969.75 ± 0.8
9300 kPa	969.92 ± 0.8
9325 kPa	970 ± 0.8
9350 kPa	970.16 ± 0.8
9375 kPa	970.32 ± 0.8
9400 kPa	970.45 ± 0.8
9425 kPa	970.57 ± 0.8
9450 kPa	970.67 ± 0.8
9475 kPa	970.81 ± 0.8
9500 kPa	970.97 ± 0.8
9525 kPa	971.14 ± 0.8
9550 kPa	971.22 ± 0.8
9575 kPa	971.39 ± 0.8
9600 kPa	971.55 ± 0.8
9625 kPa	971.63 ± 0.8
9650 kPa	971.74 ± 0.8
9675 kPa	971.88 ± 0.8
9700 kPa	972.04 ± 0.8
9725 kPa	972.2 ± 0.8
9750 kPa	972.29 ± 0.8
9775 kPa	972.43 ± 0.8
9800 kPa	972.53 ± 0.8
9825 kPa	972.69 ± 0.8
9850 kPa	972.82 ± 0.8
9875 kPa	972.94 ± 0.8
9900 kPa	973.1 ± 0.8
9925 kPa	973.18 ± 0.8
9950 kPa	973.35 ± 0.8
9975 kPa	973.43 ± 0.8
10000 kPa	973.59 ± 0.8
10025 kPa	973.69 ± 0.8
10050 kPa	973.84 ± 0.8
10075 kPa	973.99 ± 0.8
10100 kPa	974.08 ± 0.8
10125 kPa	974.24 ± 0.8
10150 kPa	974.34 ± 0.8
10175 kPa	974.49 ± 0.8
10200 kPa	974.57 ± 0.8
10225 kPa	974.73 ± 0.8
10250 kPa	974.82 ± 0.8
10275 kPa	974.98 ± 0.8
10300 kPa	975.11 ± 0.8
10325 kPa	975.22 ± 0.8
10350 kPa	975.36 ± 0.8
10375 kPa	975.47 ± 0.8
10400 kPa	975.63 ± 0.8
10425 kPa	975.71 ± 0.8
10450 kPa	975.88 ± 0.8
10475 kPa	975.96 ± 0.8
10500 kPa	976.12 ± 0.8
10525 kPa	976.2 ± 0.8
10550 kPa	976.37 ± 0.8
10575 kPa	976.45 ± 0.8
10600 kPa	976.61 ± 0.8
10625 kPa	976.69 ± 0.8
10650 kPa	976.86 ± 0.8
10675 kPa	976.94 ± 0.8
10700 kPa	977.1 ± 0.8
10725 kPa	977.18 ± 0.8
10750 kPa	977.35 ± 0.8
10775 kPa	977.48 ± 0.8
10800 kPa	977.59 ± 0.8
10825 kPa	977.76 ± 0.8
10850 kPa	977.84 ± 0.8
10875 kPa	978 ± 0.8
10900 kPa	978.08 ± 0.8
10925 kPa	978.2 ± 0.8
10950 kPa	978.33 ± 0.8
10975 kPa	978.49 ± 0.8
11000 kPa	978.57 ± 0.8
11025 kPa	978.7 ± 0.8
11050 kPa	978.82 ± 0.8
11075 kPa	978.97 ± 0.8
11100 kPa	979.06 ± 0.8
11125 kPa	979.16 ± 0.8
11150 kPa	979.3 ± 0.8
11175 kPa	979.46 ± 0.8
11200 kPa	979.55 ± 0.8
11225 kPa	979.71 ± 0.8
11250 kPa	979.8 ± 0.8
11275 kPa	979.94 ± 0.8
11300 kPa	980.04 ± 0.8
11325 kPa	980.16 ± 0.8
11350 kPa	980.29 ± 0.8
11375 kPa	980.39 ± 0.8
11400 kPa	980.53 ± 0.8
11425 kPa	980.69 ± 0.8
11450 kPa	980.78 ± 0.8
11475 kPa	980.89 ± 0.8
11500 kPa	981.02 ± 0.8
11525 kPa	981.13 ± 0.8
11550 kPa	981.26 ± 0.8
11575 kPa	981.37 ± 0.8
11600 kPa	981.51 ± 0.8
11625 kPa	981.62 ± 0.8
11650 kPa	981.75 ± 0.8
11675 kPa	981.86 ± 0.8
11700 kPa	982 ± 0.8
11725 kPa	982.08 ± 0.8
11750 kPa	982.24 ± 0.8
11775 kPa	982.36 ± 0.8
11800 kPa	982.49 ± 0.8
11825 kPa	982.57 ± 0.8
11850 kPa	982.74 ± 0.8
11875 kPa	982.81 ± 0.8
11900 kPa	982.98 ± 0.8
11925 kPa	983.06 ± 0.8
11950 kPa	983.22 ± 0.8
11975 kPa	983.3 ± 0.8
12000 kPa	983.47 ± 0.8
12025 kPa	983.55 ± 0.8
12050 kPa	983.69 ± 0.8
12075 kPa	983.79 ± 0.8
12100 kPa	983.94 ± 0.8
12125 kPa	984.04 ± 0.8
12150 kPa	984.12 ± 0.8
12175 kPa	984.29 ± 0.8
12200 kPa	984.37 ± 0.8
12225 kPa	984.53 ± 0.8
12250 kPa	984.61 ± 0.8
12275 kPa	984.74 ± 0.8
12300 kPa	984.86 ± 0.8
12325 kPa	984.94 ± 0.8
12350 kPa	985.1 ± 0.8
12375 kPa	985.18 ± 0.8
12400 kPa	985.35 ± 0.8
12425 kPa	985.43 ± 0.8
12450 kPa	985.59 ± 0.8
12475 kPa	985.67 ± 0.8
12500 kPa	985.78 ± 0.8
12525 kPa	985.92 ± 0.8
12550 kPa	986 ± 0.8
12575 kPa	986.16 ± 0.8
12600 kPa	986.24 ± 0.8
12625 kPa	986.39 ± 0.8
12650 kPa	986.49 ± 0.8
12675 kPa	986.57 ± 0.8
12700 kPa	986.65 ± 0.8
12725 kPa	986.81 ± 0.8
12750 kPa	986.89 ± 0.8
12775 kPa	987.06 ± 0.8
12800 kPa	987.14 ± 0.8
12825 kPa	987.27 ± 0.8
12850 kPa	987.38 ± 0.8
12875 kPa	987.47 ± 0.8
12900 kPa	987.63 ± 0.8
12925 kPa	987.71 ± 0.8
12950 kPa	987.8 ± 0.8
12975 kPa	987.96 ± 0.8
13000 kPa	988.04 ± 0.8
13025 kPa	988.15 ± 0.8
13050 kPa	988.28 ± 0.8
13075 kPa	988.39 ± 0.8
13100 kPa	988.53 ± 0.8
13125 kPa	988.61 ± 0.8
13150 kPa	988.76 ± 0.8
13175 kPa	988.85 ± 0.8
13200 kPa	988.93 ± 0.8
13225 kPa	989.1 ± 0.8
13250 kPa	989.18 ± 0.8
13275 kPa	989.28 ± 0.8
13300 kPa	989.42 ± 0.8
13325 kPa	989.5 ± 0.8
13350 kPa	989.67 ± 0.8
13375 kPa	989.75 ± 0.8
13400 kPa	989.83 ± 0.8
13425 kPa	989.98 ± 0.8
13450 kPa	990.07 ± 0.8
13475 kPa	990.16 ± 0.8
13500 kPa	990.32 ± 0.8
13525 kPa	990.4 ± 0.8
13550 kPa	990.48 ± 0.8
13575 kPa	990.65 ± 0.8
13600 kPa	990.73 ± 0.8
13625 kPa	990.86 ± 0.8
13650 kPa	990.97 ± 0.8
13675 kPa	991.05 ± 0.8
13700 kPa	991.22 ± 0.8
13725 kPa	991.3 ± 0.8
13750 kPa	991.4 ± 0.8
13775 kPa	991.51 ± 0.8
13800 kPa	991.62 ± 0.8
13825 kPa	991.75 ± 0.8
13850 kPa	991.87 ± 0.8
13875 kPa	991.95 ± 0.8
13900 kPa	992.09 ± 0.8
13925 kPa	992.19 ± 0.8
13950 kPa	992.27 ± 0.8
13975 kPa	992.38 ± 0.8
14000 kPa	992.52 ± 0.8
14025 kPa	992.6 ± 0.8

Details	speed of sound [m/s]
10000 kPa, Frequency=5 MHz, Pulse-echo method	634.7 ± 1
